Test results published in publication PMC10458721, “Monitoring Both Extended and Tryptic Forms of Stable Isotope-Labeled Standard Peptides Provides an Internal Quality Control of Proteolytic Digestion in Targeted Mass Spectrometry-Based Assays” (Molecular & Cellular Proteomics : MCP, 2023).

Legend:
trypsin [1] = molecular target: T1, trypsin (Sus scrofa, UniProt P00761); assay: Apparent first order hydrolysis of extended SIS peptides (kobs, half-life, time to 75% and 95% hydrolyzed); type: in vitro ADME; design: purchased Promega V5111; conditions: for Observed rate constant (slope of linear regression of Ln(A,t/A,0) over time): trypsin digestion time course, direct-MRM
Protocol: By plotting the natural log as a function of time, or ln(At/A0)∼t, with At and A0 reported as the average peak area of hE from process triplicates at time t and time zero, respectively, a linear fit was calculated and kobs was reported as the slope of the fit (supplemental Table S9). […] Hydrolysis or disappearance of extended SIS peptides across both assays were categorized as fast, medium, slow, or pre-digested by Lys-C (not included in plot) by rate constants calculated using apparent first order kinetics. […] MRM, multiple reaction monitoring; SIS, stable isotope-labeled standard.

trypsin [2] = molecular target: T1, trypsin; assay: hE/hT QC metric of proteolytic digestion (pass/marginal/fail); design: purchased Promega V5111; conditions: QC panel SIS pairs, 0 to 21 h, three replicates, versus 16-h control digestion
Description: We next compared the utility of the peak area of hT and the ratio of hE/hT as a QC metric to monitor trypsin digestion efficiency. Measurements from the triplicate control digestion samples were used to define the acceptability criteria for the QC metric. A QC pass was defined as an hT value or hE/hT ratio within 2 SD of the median. A marginal QC was defined as a value that was less than three SD but more than two SD greater than the median. Finally, a QC failure was defined as a value that was three SDs greater than the median. We then tested the ability of the QC metric, as defined by either the hE/hT ratio or hT alone, to detect a loss of assay sensitivity, defined as the endogenous peak area in the stressed condition as a fraction of the control. There were 23 targets (15 for the direct-MRM assay, 8 for the immuno-MRM assay) that had endogenous measurements above the LLOQ in the control digestions and also had extended peptides that were not categorized as ‘pre-digested’.
Finally, to ensure the hE/hT QC metric was not subject to day-to-day variability, we excluded any SIS pairs that failed QC across our replicate, 16-h control digestions (one in the stressor experiment and one in the time course experiment). […]

[3] = fit with R2 > 0.80, min 3-4 time points
[4] = fit with R2 > 0.80, time points chosen to maximize R2 (minimum 4 points)

T1 sequence (P00761 9-231): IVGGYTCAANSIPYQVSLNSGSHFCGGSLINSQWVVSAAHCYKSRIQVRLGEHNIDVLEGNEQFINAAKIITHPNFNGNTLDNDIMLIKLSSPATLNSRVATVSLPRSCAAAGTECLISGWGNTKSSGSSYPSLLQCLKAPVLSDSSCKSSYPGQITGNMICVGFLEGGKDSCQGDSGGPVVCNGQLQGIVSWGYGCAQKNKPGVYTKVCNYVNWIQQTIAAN

| Observed rate constant (slope of linear regression of Ln(A,t/A,0) over time) (trypsin [1]; [3]) | Observed rate constant (slope of linear regression of Ln(A,t/A,0) over time) (trypsin [1]; [4]) | Substance | also measured |
| --- | --- | --- | --- |
|  |  | AATC[+57]SKYTELPYGREDVLKE | Half-life of extended SIS peptide (trypsin [1]; direct-MRM trypsin digestion time course, from observed rate constant): 31.34 min |
| -0.0217 min⁻¹ |  | DEVIKEVQEFYKDTYNK [CD9_P21926_1751] |  |
| -0.0308 min⁻¹ |  | DSFRFGAPPHAGGGIGLERVTML [DARS_P14868_1752] |  |
| -0.1677 min⁻¹ |  | DTKSDIIFFQRSVP [IL18_Q14116_1752] |  |
| -0.0481 min⁻¹ |  | EEMEKVLAGETLSVNDPPDVLDRQK [ILF3_Q12906_GO] |  |
|  |  | GEEDNSLSVR[+10] | hE/hT QC result in trypsin digestion time course (trypsin [2]): inconsistent QC results across the three replicates prior to the last time point |
|  | -0.0388 min⁻¹ | IERTFHVETPEEREEW [AKT1_P31749_1751] |  |
|  | -0.0813 min⁻¹ | IQVGRNIIHGSDSVESAEKEIGLWF [NME1_P15531_1753] |  |
|  | -0.0473 min⁻¹ | KHRTGDEITYQC[+57]RNGF [CFH_P08603_1752] |  |
|  |  | YTELPYGR[+10] | hE/hT QC result in trypsin digestion time course (trypsin [2]): pass QC, then fail (or marginally pass) the QC at the latest time point |
